This passage reports TGI results from PubChem BioAssay (NCI).

Test systems include UACC-62 melanoma; RXF 393 renal; SNB-75 CNS; COLO 205 colon; TK-10 renal; SK-MEL-28 melanoma; M14 melanoma; NCI/ADR-RES ovarian; K-562 leukemia; HOP-92 NSCLC.
Common to all, as to test: NCI anticancer screen, dose series, 48 h

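Dose response: 5 concentrations. Exposure: 48 h. Format: 96-well plates. Endpoint: linear interpolation; highest concentration if not reached. The concentration for full growth arrest is given as TGI.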 Some results are limits rather than exact numbers.

Consider `Cc1ccc(C2SC(N)=Nc3c2c(C)nn3C(=O)c2ccc(Cl)cc2)cc1` (stereo not given), for which the TGI in the assay on UACC-62 melanoma, in the assay with RXF 393 renal, with SNB-75 CNS, with COLO 205 colon, in the assay with TK-10 renal and with SK-MEL-28 melanoma was above 10 µM each time. For the same compound, the TGI in the assay with M14 melanoma, in the assay on NCI/ADR-RES ovarian, in the assay with K-562 leukemia and with HOP-92 NSCLC was above 10 µM each time.

`O=C1c2cscc2C(=O)c2c(OCc3ccccc3)ccc(OCc3ccccc3)c21`: the TGI in the assay with UACC-62 melanoma, in the assay with RXF 393 renal, in the assay with SNB-75 CNS, with COLO 205 colon, with TK-10 renal and in the assay with SK-MEL-28 melanoma was above 100 µM in each case. Also, the TGI in the assay on M14 melanoma, with NCI/ADR-RES ovarian, in the assay with K-562 leukemia and in the assay with HOP-92 NSCLC was above 100 µM in each case.

For the compound `N#Cc1nc(NC(=O)c2ccccc2)sc1N`, the TGI in the assay with UACC-62 melanoma, in the assay on RXF 393 renal, in the assay on SNB-75 CNS, in the assay on COLO 205 colon, in the assay with TK-10 renal and with SK-MEL-28 melanoma was above 10 µM throughout. Besides, the TGI in the assay with M14 melanoma, in the assay on NCI/ADR-RES ovarian, with K-562 leukemia and in the assay with HOP-92 NSCLC was above 10 µM each time.

`CC(=O)O[C@H]1CC[C@@]2(C)C(=CC[C@H]3[C@@H]4C/C(=C\c5ccncc5)[C@H](OC(C)=O)[C@@]4(C)CC[C@@H]32)C1`: the TGI in the assay with UACC-62 melanoma came out at 26.5 µM; in the assay on RXF 393 renal it was 9.86 µM; with SNB-75 CNS, 23.8 µM; with COLO 205 colon it was 18.2 µM; with TK-10 renal, 47.9 µM; in the assay on SK-MEL-28 melanoma it was 20.6 µM. The TGI worked out at 30.2 µM in the assay on M14 melanoma, 27.3 µM with NCI/ADR-RES ovarian, 42.4 µM in the assay with K-562 leukemia and 19.7 µM in the assay on HOP-92 NSCLC.

Consider `CC(=O)OC(C#N)CC(C)(C)/[N+]([O-])=[N+](\[O-])C(C)(C)CC(C#N)OC(C)=O` (stereo not given), for which the TGI with UACC-62 melanoma was 32.2 µM; in the assay with RXF 393 renal, 27.4 µM; in the assay on SNB-75 CNS it was 63.8 µM; in the assay with COLO 205 colon, 32 µM; in the assay with TK-10 renal it was 31.2 µM; in the assay with SK-MEL-28 melanoma, 96.4 µM. Moreover, the TGI in the assay with M14 melanoma was 32.2 µM; in the assay with NCI/ADR-RES ovarian it was 79.3 µM; in the assay on K-562 leukemia, 26.2 µM; with HOP-92 NSCLC, 27 µM.

As to `O=c1c2ccccc2n2n1Cc1ccccc1C2`, the TGI in the assay with UACC-62 melanoma, in the assay with RXF 393 renal, with SNB-75 CNS, in the assay with COLO 205 colon, in the assay with TK-10 renal and in the assay with SK-MEL-28 melanoma was above 100 µM each time. Besides, the TGI in the assay on NCI/ADR-RES ovarian, in the assay on K-562 leukemia and with HOP-92 NSCLC was above 100 µM throughout.

On to `Cc1ccc(Nc2cc(=O)[nH]c(=O)[nH]2)cc1CS`, for which the TGI in the assay on UACC-62 melanoma, with RXF 393 renal, in the assay with SNB-75 CNS, in the assay with COLO 205 colon, in the assay with TK-10 renal and in the assay with SK-MEL-28 melanoma was above 100 µM throughout. Besides, the TGI in the assay with M14 melanoma, in the assay with NCI/ADR-RES ovarian, with K-562 leukemia and with HOP-92 NSCLC was above 100 µM each time.

With `Cc1cc(S(=O)(=O)Nc2nc(N)nc(N(C)C)n2)c(SC(C(=O)O)c2ccccc2)cc1Cl` (stereo not given), the TGI with RXF 393 renal, in the assay with SNB-75 CNS, in the assay with COLO 205 colon, with TK-10 renal, in the assay on SK-MEL-28 melanoma and with M14 melanoma was above 10 µM throughout. For the same compound, the TGI in the assay on NCI/ADR-RES ovarian, in the assay on K-562 leukemia and in the assay on HOP-92 NSCLC was above 10 µM each time.

On to `O=C1NCC2(CCNCC2)N1`, for which the TGI in the assay on UACC-62 melanoma, with RXF 393 renal, with SNB-75 CNS, with COLO 205 colon, in the assay on TK-10 renal and in the assay with SK-MEL-28 melanoma was above 100 µM each time. The TGI with M14 melanoma, with NCI/ADR-RES ovarian and in the assay on HOP-92 NSCLC was above 100 µM in each case.

With `COC(=O)c1c2c(cc3c1CC1(C3)Cc3ccc4c(c3C1=O)CCC4)CCC2` (stereo not given), the TGI in the assay with UACC-62 melanoma is above 25.3 µM; in the assay with RXF 393 renal, 3.14 µM; in the assay on SNB-75 CNS, above 25.9 µM; in the assay on TK-10 renal, above 35.3 µM; in the assay on SK-MEL-28 melanoma it was above 100 µM; with M14 melanoma, 18.6 µM. Further, the TGI in the assay with NCI/ADR-RES ovarian was above 22.5 µM; with K-562 leukemia it was above 100 µM; in the assay with HOP-92 NSCLC it was above 70.6 µM.

For the compound `N#CC1C(=O)NC2=C(CCOc3c2ccc2ccccc32)C1c1ccc(F)cc1` (stereo not given), the TGI in the assay with RXF 393 renal is 36 µM; in the assay with SNB-75 CNS, 54 µM; with COLO 205 colon, above 100 µM; with TK-10 renal it was 43.2 µM; in the assay with M14 melanoma, 68 µM; in the assay on NCI/ADR-RES ovarian it was 43.8 µM. The values for the TGI in the assay on K-562 leukemia and in the assay with HOP-92 NSCLC were above 100 µM and 28.5 µM, respectively.

As for `Cc1cccc(Nc2nc(NNC(=O)Cc3ccccc3)nc(NNC(=O)c3ccncc3)n2)c1`, the TGI in the assay with UACC-62 melanoma, in the assay on RXF 393 renal, with SNB-75 CNS, in the assay with COLO 205 colon, with TK-10 renal and in the assay with SK-MEL-28 melanoma was above 10 µM each time. In addition, the TGI in the assay with M14 melanoma, in the assay on NCI/ADR-RES ovarian and in the assay with HOP-92 NSCLC was above 10 µM in each case.

As for `O=C1c2ccccc2-n2c1nc1cc(Cl)ccc1c2=O`, the TGI with UACC-62 melanoma is 32.1 µM; with RXF 393 renal, above 100 µM; in the assay on SNB-75 CNS, above 100 µM; with COLO 205 colon, above 100 µM; with TK-10 renal, above 100 µM; in the assay on M14 melanoma, above 100 µM. Also, the TGI with NCI/ADR-RES ovarian, with K-562 leukemia and with HOP-92 NSCLC was above 100 µM throughout.

Turning to `Oc1c2c(c3c4c1N=CC=4CCN=3)C1(C=C(Br)C(O)C(Br)=C1)CCN2` (stereo not given), the TGI in the assay with UACC-62 melanoma worked out at 2.66 µM; in the assay with RXF 393 renal it was 7.57 µM; with SNB-75 CNS it was 24.5 µM; with COLO 205 colon it was 0.418 µM; in the assay with SK-MEL-28 melanoma, 21.5 µM; in the assay with NCI/ADR-RES ovarian it was 2.77 µM. The TGI in the assay with K-562 leukemia was above 21 µM; with HOP-92 NSCLC it was 8.08 µM.
